# Key:
# [1] = Stability of ticagrelor 6 mg/ml in HPβCD 40% w/w, buffer pH 4.5, 5.5, 6.5, stored at 40° C. and 75% RH (HPLC related substances); type: physicochemical
# Procedure: HPβCD was dissolved in a buffer solution of pH 4.5, 5.5 or 6.5 prepared separately in water. […] The ticagrelor in buffer solution was filtered through a 0.22 micron filtered and filled in USP Type I glass vials. The vials were stoppered and stored. All precautions were taken during manufacturing, such as N2 purging and avoiding direct exposure to light. The vials were stored at 40° C. and 75% Relative Humidity (RH).
# To determine the stability of the formulations, batches were evaluated using a related substance method on HPLC.
# A Gradient HPLC method was used to analyze impurities in formulations using a YMC-Pack Pro C18 column (100×4.6 mm, S-3 μm 12 nm). Good separation was obtained for all the impurities. • Amine impurity: (1S,2S,3R,5S)-3-(7-amino-5-(propylsulfanyl)-3H-[1,2,3]triazolo[4,5-d]pyrimidin-3-yl)-5-(2-hydroxyethoxy)cyclopentane-1,2-diol. This is a process related degradant impurity. • Regiomer impurity: (1S, 2S, 3R, 5S)-3-((3-((1R,2S)-2-(3,4-Difluorophenyl)cyclopropyl)-5-(propylsulfanyl)-3H-[1,2,3]triazolo[4,5-d]pyrimidin-7-yl)amino)-5-(2-hydroxyethoxy)cyclopentane-1,2-diol. This is a process related degradant impurity. • Acetal impurity: 2-[[(3aR,4S,6S,6aS)-6-[7-[1R,2S)-2-(3,4-difluorophenyl)-cyclopropyl]amino]-5-(propylsulfanyl)-3H-[1,2,3]triazolo-[4,5-d]pyrimidin-3-yl]-2,2-dimethyltetrahydro-2H-3aHcyclopenta[d][1,3]dioxol-4-yl]oxy]ethan-1-ol.
# [2] = Impact of buffer strength on pH, osmolality, assay and impurities; type: physicochemical
# Procedure: In addition, a screening was conducted on the impact of buffer strength on pH and osmolality.
# [3] = pH 4.5, T = 2 weeks, 40° C./75% RH
# [4] = pH 4.5, T = 4 weeks, 40° C./75% RH
# [5] = pH 5.5, T = 2 weeks, 40° C./75% RH
# [6] = pH 5.5, T = 4 weeks, 40° C./75% RH
# [7] = pH 6.5, T = 2 weeks, 40° C./75% RH
# [8] = pH 6.5, T = 4 weeks, 40° C./75% RH
# [9] = Phosphate buffer pH 7.5 strength 0.19 mM
# [10] = Phosphate buffer pH 7.5 strength 5 mM
# [11] = Phosphate buffer pH 7.5 strength 10 mM
# [12] = Phosphate buffer pH 7.5 strength 19 mM
smiles,measurement,setting,value
"CCCSc1nc(N[C@@H]2C[C@H]2c2ccc(F)c(F)c2)c2nnn([C@@H]3C[C@H](OCCO)[C@@H](O)[C@H]3O)c2n1 [Ticagrelor, (1S,2S,3R,5S)-3-{7-[(1R,2S)-2-(3,4-difluorophenyl)cyclopropylamino]5-(propylthio)-3H-(1,2,3)triazolo (4,5-D)pyrimidin-3-yl}-5-(2 hydroxyethoxy)cyclopentane-1,2-diol]",Regiomer impurity level,"[1]; 4 weeks 40° C. and 75% RH, specification limit 0.3%",~0.3%
same,Acetal impurity content,"[1]; pH 4.5, T = 0",0.05%
same,Amine impurity content,"[1]; pH 4.5, T = 0",0.05%
same,"Content of unnamed impurity, relative retention time 1.52","[1]; pH 4.5, T = 0",0.03%
same,Oxidative impurity 1 content,"[1]; pH 4.5, T = 0",0.00%
same,Oxidative impurity 2 content,"[1]; pH 4.5, T = 0",0.00%
same,Regiomer impurity content,"[1]; pH 4.5, T = 0",0.00%
same,Sum Impurities >0.05,"[1]; pH 4.5, T = 0",0.22%
same,Total Impurities,"[1]; pH 4.5, T = 0",0.36%
same,Triol impurity content,"[1]; pH 4.5, T = 0",0.05%
same,Acetal impurity content,[1]; [3],0.06%
same,Amine impurity content,[1]; [3],0.05%
same,"Content of unnamed impurity, relative retention time 1.52",[1]; [3],0.04%
same,Oxidative impurity 1 content,[1]; [3],0.00%
same,Oxidative impurity 2 content,[1]; [3],0.00%
same,Regiomer impurity content,[1]; [3],0.00%
same,Sum Impurities >0.05,[1]; [3],0.23%
same,Total Impurities,[1]; [3],0.40%
same,Triol impurity content,[1]; [3],0.05%
same,Acetal impurity content,[1]; [4],0.05%
same,Amine impurity content,[1]; [4],0.05%
same,"Content of unnamed impurity, relative retention time 1.52",[1]; [4],0.03%
same,Oxidative impurity 1 content,[1]; [4],0.01%
same,Oxidative impurity 2 content,[1]; [4],0.02%
same,Regiomer impurity content,[1]; [4],0.42%
same,Sum Impurities >0.05,[1]; [4],0.63%
same,Total Impurities,[1]; [4],0.80%
same,Triol impurity content,[1]; [4],0.05%
same,Acetal impurity content,"[1]; pH 5.5, T = 0",0.05%
same,Amine impurity content,"[1]; pH 5.5, T = 0",0.04%
same,"Content of unnamed impurity, relative retention time 1.52","[1]; pH 5.5, T = 0",0.02%
same,Oxidative impurity 1 content,"[1]; pH 5.5, T = 0",0.00%
same,Oxidative impurity 2 content,"[1]; pH 5.5, T = 0",0.00%
same,Regiomer impurity content,"[1]; pH 5.5, T = 0",0.00%
same,Sum Impurities >0.05,"[1]; pH 5.5, T = 0",0.16%
same,Total Impurities,"[1]; pH 5.5, T = 0",0.33%
same,Triol impurity content,"[1]; pH 5.5, T = 0",0.05%
same,Acetal impurity content,[1]; [5],0.05%
same,Amine impurity content,[1]; [5],0.05%
same,"Content of unnamed impurity, relative retention time 1.52",[1]; [5],0.03%
same,Oxidative impurity 1 content,[1]; [5],0.00%
same,Oxidative impurity 2 content,[1]; [5],0.00%
same,Regiomer impurity content,[1]; [5],0.00%
same,Sum Impurities >0.05,[1]; [5],0.21%
same,Total Impurities,[1]; [5],0.36%
same,Triol impurity content,[1]; [5],0.05%
same,Acetal impurity content,[1]; [6],0.05%
same,Amine impurity content,[1]; [6],0.04%
same,"Content of unnamed impurity, relative retention time 1.52",[1]; [6],0.02%
same,Oxidative impurity 1 content,[1]; [6],0.01%
same,Oxidative impurity 2 content,[1]; [6],0.02%
same,Regiomer impurity content,[1]; [6],0.30%
same,Sum Impurities >0.05,[1]; [6],0.45%
same,Total Impurities,[1]; [6],0.65%
same,Triol impurity content,[1]; [6],0.05%
same,Acetal impurity content,"[1]; pH 6.5, T = 0",0.06%
same,Amine impurity content,"[1]; pH 6.5, T = 0",0.05%
same,"Content of unnamed impurity, relative retention time 1.52","[1]; pH 6.5, T = 0",0.03%
same,Oxidative impurity 1 content,"[1]; pH 6.5, T = 0",0.00%
same,Oxidative impurity 2 content,"[1]; pH 6.5, T = 0",0.00%
same,Regiomer impurity content,"[1]; pH 6.5, T = 0",0.00%
same,Sum Impurities >0.05,"[1]; pH 6.5, T = 0",0.22%
same,Total Impurities,"[1]; pH 6.5, T = 0",0.36%
same,Triol impurity content,"[1]; pH 6.5, T = 0",0.06%
same,Acetal impurity content,[1]; [7],0.06%
same,Amine impurity content,[1]; [7],0.05%
same,"Content of unnamed impurity, relative retention time 1.52",[1]; [7],0.04%
same,Oxidative impurity 1 content,[1]; [7],0.00%
same,Oxidative impurity 2 content,[1]; [7],0.00%
same,Regiomer impurity content,[1]; [7],0.00%
same,Sum Impurities >0.05,[1]; [7],0.23%
same,Total Impurities,[1]; [7],0.41%
same,Triol impurity content,[1]; [7],0.06%
same,Acetal impurity content,[1]; [8],0.06%
same,Amine impurity content,[1]; [8],0.05%
same,"Content of unnamed impurity, relative retention time 1.52",[1]; [8],0.03%
same,Oxidative impurity 1 content,[1]; [8],0.00%
same,Oxidative impurity 2 content,[1]; [8],0.04%
same,Regiomer impurity content,[1]; [8],0.35%
same,Sum Impurities >0.05,[1]; [8],0.56%
same,Total Impurities,[1]; [8],0.72%
same,Triol impurity content,[1]; [8],0.05%
same,Osmolality sample,[2]; Phosphate buffer pH 7.5,809 mOsm/kg
same,Assay,[2]; [9],102.23%
same,Total Impurities,[2]; [9],0.42%
same,pH sample,[2]; [9],7.18
same,Assay,[2]; [10],100.49%
same,Osmolality sample,[2]; [10],703 mOsm/kg
same,Total Impurities,[2]; [10],0.40%
same,pH sample,[2]; [10],7.66
same,Assay,[2]; [11],102.98%
same,Osmolality sample,[2]; [11],724 mOsm/kg
same,Total Impurities,[2]; [11],0.42%
same,pH sample,[2]; [11],7.69
same,Assay,[2]; [12],102.58%
same,Osmolality sample,[2]; [12],758 mOsm/kg
same,Total Impurities,[2]; [12],0.42%
same,pH sample,[2]; [12],7.70

# — patent US20250235455A1, “AQUEOUS TICAGRELOR SOLUTIONS, METHOD OF MANUFACTURING AND USES” (HYLORIS DEVELOPMENTS SA, priority 2022, published 2025)
